Test results published in patent US12194033B2, “Glycine receptor modulators and methods of use” (University of Pittsburgh—Of the Commonwealth System of …, priority 2017, dated 2025).
Where “and” joins values, the source holds several entries; their conditions need not be identical. Equal values may be shown once.

What was measured:
[1] = test system: chimera ELIC-α3GlyR containing the α3GlyR TMD; assay: Electrophysiology on Xenopus laevis oocytes, chimera; assay type: cell-based; conditions: EC2 agonist, 10 μM compound
Protocol: MJPY1 potentiates α3GlyR through binding to the THC-binding site near S296 in the transmembrane domain (TMD). Like α3GlyR, but unlike ELIC, the chimera ELIC-α3GlyR containing the α3GlyR TMD is potentiated by MJPY1. The S296A mutation in α3GlyR abolishes compound 1 (MJPY1)'s potentiation. Data were recorded at EC2 agonist for the indicated channels and are reported as the ratio of currents in the presence (I) and absence (Io) of 10 μM compound 1 (MJPY1). Error bars represent SEM (n≥4 oocytes).

CD1 mice = assay: Hargreaves test under CFA-induced hyperalgesic conditions in CD1 mice; assay type: in vivo
Protocol: Under CFA-induced hyperalgesic conditions, the maximum possible effect, % MPE=(response−baseline)/(cut-off time−baseline), was measured for the application of compound 1 alone (0.05 mg/kg, blue, n=12; 0.01 mg/kg, orange, n=4), morphine alone (0.1 mg/kg, green, n=8), and compound 1 with morphine at three different dosage combinations: 0.05 mg/kg compound 1 with 0.1 mg/kg morphine (light blue, n=6), 0.01 mg/kg compound 1 with 0.1 mg/kg morphine (pink, n=10), and 0.01 mg/kg compound 1 with 0.01 mg/kg morphine (red, n=4). […] Error bars designate the standard error of the mean.
0.05 mg/kg compound 1 was tested for tolerance in CFA-treated mice (red). Under CFA-induced hyperalgesic conditions (24 hours post-application of CFA), 0.05 mg/kg compound 1 was administered to CD1 mice and responses to the Hargreaves test were measured immediately after the initial injection (application time=0) and again after a repeated dose given 1.5 hours (FIG. 7A) or 24 hours (FIG. 7B) after the effects of the first dose wore off. The black circles represent the responses of naïve mice (i.e., no administration of compound 1 or CFA), and the red circles represent the responses of mice receiving compound 1 under CFA-induced hyperalgesic conditions. […] Error bars designate the standard error of the mean (n=4).
Responses of CD1 mice to the Hargreaves test were assessed after application of 0.1 mg/kg of the indicated compounds (black) or vehicle (white) under CFA-induced hyperalgesic conditions as shown in FIGS. 8A-8H. The assessed compounds were compounds 1 (8A), 2 (8B), 3 (8C), 4 (8D), 5 (8E), 6 (8F), 7 (8G), and 8 (8H). […] Error bars designate the standard error of the mean (n≥4).
Dose response curves from the Hargreaves test in mice with a CFA-inflamed left hind paw at 1.5 and 2 hr after intraperitoneal injection of compound 1. Percent Maximum Possible Effect (% MPE) was calculated from paw withdrawal latencies.
Tolerance to compound 1 (MJPY1) and compound 3 (MJPY2) was measured by repeated dosing in the Hargreaves Test. […] Mice (n=6/group) received repeated i.p. injections of vehicle or 0.1 mg/kg compound 1 (MJPY1) or compound 3 (MJPY2) once a day for 5 days. CFA inflammation was induced on day 4, and PWL was measured 0.5 hr before and every 10 min after treatment on day 5. Data were binned to 30-min blocks (mean±SEM).

mice = assay: Two-plate thermal preference test (30° C. vs 55° C.); assay type: in vivo
Protocol: Responses to the two-plate thermal preference test were assessed under naïve conditions and 1 hour after administration of 0.2 mg/kg compound 1, 0.1 mg/kg morphine, or 0.2 mg/kg compound 1+0.1 mg/kg morphine. Unrestrained mice were exposed to plates set to normal and hot temperatures (30° C. and 55° C., respectively). Temperature preference was measured by percentage time spent on the hot plate (55° C.) over the course of 4 minutes, where 50% indicates no preference between the two temperatures. […] Error bars designate the standard error of the mean (n≥5).
Unrestrained mice were exposed to plates set to normal and hot temperatures (30° C. and 55° C., respectively) for 10 minutes. […] Error bars designate the standard error of the mean (n=4).
The percent inactivity on the 55° C. plate (mean±SEM) is a measure of heat tolerance. Significance was assessed by one-way ANOVA with LSD post-hoc test.

[2] = test system: inflammatory markers in the liver and spleen of mice; assay: In vivo immune responses by flow cytometry; conditions: 2 mg/kg, ~16 hours prior to sacrifice
Protocol: Toxicity was evaluated using in vitro Ames test and in vivo immune responses flow cytometry. Compound 1 (MJPY1) at each concentration was tested in three 48-well plates using the TA100 strain Salmonella typhimurium and S9 rat liver extract for base-pair substitution mutations. Error bars represent SEM. Significance (p<0.05) was evaluated compared to the control (0 μM) using one-way ANOVA with the Bonferroni post-hoc test. FIGS. 15A and 15B show flow cytometry evaluation of common inflammatory markers in the liver and spleen of mice in response to compound 1 (MJPY1) treatment. Mice received either 2 mg/kg of MJPY1 (right) or vehicle (left) ˜16 hours prior to sacrifice and tissue collection. Significant differences between the treatment and control were observed only for decreased CD11b+ in the liver of mice treated with MJPY1 (p<0.001). […] Results were analyzed by one-way ANOVA with Bonferroni post-hoc test.

4 2-nAChR = 4 2-nAChR (Homo sapiens, UniProt P17787+P43681); assay: Radioligand binding assay, off-target profiling; conditions: 10 M MJPY1, mean, n = 4
NMDAR = assay: Radioligand binding assay, off-target profiling; conditions: 10 M MJPY1, mean, n = 4

Sequence of 4 2-nAChR (P43681 29-627 limits assumed): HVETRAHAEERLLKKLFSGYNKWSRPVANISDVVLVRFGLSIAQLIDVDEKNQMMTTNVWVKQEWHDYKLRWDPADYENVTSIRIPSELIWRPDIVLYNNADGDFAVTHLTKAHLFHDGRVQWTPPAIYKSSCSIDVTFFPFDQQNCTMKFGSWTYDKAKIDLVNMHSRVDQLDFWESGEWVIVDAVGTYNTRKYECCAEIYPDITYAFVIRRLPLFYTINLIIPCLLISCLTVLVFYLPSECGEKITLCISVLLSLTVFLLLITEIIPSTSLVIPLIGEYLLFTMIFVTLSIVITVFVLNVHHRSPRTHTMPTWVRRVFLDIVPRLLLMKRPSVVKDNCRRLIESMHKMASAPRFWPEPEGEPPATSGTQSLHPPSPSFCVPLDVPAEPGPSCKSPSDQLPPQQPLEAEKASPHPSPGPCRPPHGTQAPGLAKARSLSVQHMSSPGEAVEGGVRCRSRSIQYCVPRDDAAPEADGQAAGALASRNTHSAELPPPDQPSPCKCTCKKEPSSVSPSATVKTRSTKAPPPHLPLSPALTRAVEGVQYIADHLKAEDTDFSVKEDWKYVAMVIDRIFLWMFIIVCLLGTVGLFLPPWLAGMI
Sequence of 4 2-nAChR (P17787 26-502): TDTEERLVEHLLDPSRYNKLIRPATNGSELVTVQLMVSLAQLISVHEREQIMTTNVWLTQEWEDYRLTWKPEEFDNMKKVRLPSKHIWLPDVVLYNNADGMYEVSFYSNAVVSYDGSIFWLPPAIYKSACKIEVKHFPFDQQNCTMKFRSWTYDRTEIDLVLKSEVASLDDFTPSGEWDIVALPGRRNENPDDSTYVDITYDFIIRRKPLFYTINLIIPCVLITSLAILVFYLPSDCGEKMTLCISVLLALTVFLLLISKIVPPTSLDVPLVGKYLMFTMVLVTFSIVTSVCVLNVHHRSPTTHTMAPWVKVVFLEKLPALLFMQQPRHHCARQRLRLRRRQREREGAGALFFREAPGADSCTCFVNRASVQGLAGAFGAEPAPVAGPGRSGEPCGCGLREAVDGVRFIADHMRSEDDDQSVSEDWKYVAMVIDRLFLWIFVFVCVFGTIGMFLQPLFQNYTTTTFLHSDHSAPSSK

SMILES: NC(=O)c1cccc(CNC(=O)c2ccc3c4c(cccc24)CC3)c1 [compound 1, N-[(3-carbamoylphenyl)-methyl]-1,2-dihydroacenaphthylene-5-carboxamide]
- potentiation of chimera ELIC-α3GlyR (I/Io) [1]: potentiated
- tolerance (time to paw withdrawal, first vs second dosing) (CD1 mice; 0.05 mg/kg, CD1 mice, CFA, repeated dose 1.5 or 24 hours after first dose wore off): No tolerance
- tolerance after repeated dosing (PWL) (CD1 mice; 0.1 mg/kg i.p. once a day for 5 days, CFA on day 4): negligible tolerance
- response time for paw withdrawal compared to vehicle (CD1 mice; 0.1 mg/kg, CD1 mice, CFA-induced hyperalgesic conditions): increase in the response time
- EC50 for inflammatory pain (% MPE dose response, Hill fit) (CD1 mice; CFA-inflamed left hind paw, 1.5 and 2 hr after intraperitoneal injection (both time points), CD1 mice): ~0.030 mg/kg and ~0.03 mg/kg
- analgesic action compared with morphine (percent inactivity on the 55° C. plate) (mice; 0.1 mg/kg i.p., male CD1 mice, 24 hr after CFA, 1 hr after treatment, same dose): better than morphine
- percentage time spent on the hot plate (55° C.) compared to naïve mice (mice; normal nociception, 1 hour after 0.2 mg/kg compound 1, 0.1 mg/kg morphine, or both, 4 minutes): no significant analgesic response
- overall immune response to treatment ([2]; liver and spleen): minimal immune response
- CD11b+ in the liver vs vehicle ([2]; p<0.001): decreased
- % Inhibition 4 2-nAChR (4 2-nAChR): −1.8%
- % Inhibition NMDAR (NMDAR): −2.4%
